Source: PMC4749168, “Potentiation of ΔF508- and G551D-CFTR-Mediated Cl^- Current by Novel Hydroxypyrazolines” (PLoS ONE, 2016)
Where “and” joins values, the source holds several entries; their conditions need not be identical. Identical values can stand only once.

Tests used:
Format in all cases: cell-based
WT-CFTR [1] = target: T1, WT-CFTR (Homo sapiens, UniProt P13569); experiment: Halide-sensitive YFP microplate reader assay of CFTR potentiation, WT-CFTR; conditions: FRT cells, 0.1 μM forskolin
T1 construct: expressed in transfected cells; host or cells: Fisher rat thyroid (FRT) cells, co-expressing halide sensor YFP-H148Q/I152L; provided by Dr. Alan Verkman
Description: FRT cells expressing wild type- or ΔF508-CFTR with the halide sensor YFP-H148Q/I152L were plated in 96-well black-walled microplates (Corning Inc., Corning, NY) at a density of 2 x10^4cells per well. FRT-WT-CFTR-YFP cells were incubated for 48 h at 37°C, and FRT-ΔF508-CFTR-YFP cells were incubated for 24 h at 27°C after 24 h incubation at 37°C to rescue ΔF508-CFTR localization. Assays were done using FLUO star Omega microplate reader (BMG Labtech, Ortenberg, Germany) and MARS Data Analysis Software (BMG Labtech). Each well of a 96-well plate was washed 3 times in PBS (200 μL/wash). 100 μL PBS was added to each well. Forskolin (0.1 and 10 μM for WT- and ΔF508-CFTR, respectively) and test compounds (1 μL) were added to each well. After 10 min, 96-well plates were transferred to the microplate reader preheated to 37°C for fluorescence assay. Each well was assayed individually for CFTR-mediated I^- influx by recording fluorescence continuously (200 ms per point) for 2 s (baseline), then 100 μL of 140 mM I^- solution was added at 2 s and then YFP fluorescence was recorded for 14 s. Initial iodide influx rate was determined from the initial slope of fluorescence decrease, by nonlinear regression, following infusion of iodide.

WT-CFTR [2] = target: T1, WT-CFTR; experiment: Apical membrane current (Ussing chamber) in FRT cells expressing WT-CFTR
Description: (§1) Snapwell inserts containing CFTR-expressing FRT and primary culture of human nasal epithelial cells were mounted in Ussing chambers (Physiologic Instruments, San Diego, CA). Forskolin, genistein, CP7q and CFTRinh-172 were added to the apical and basolateral bath solution. For FRT cells, the apical bath was filled with a half-Cl^- solution and the basolateral bath was filled with HCO3^—buffered solution, and the basolateral membrane was permeabilized with 250 μg/mL amphotericin B. For primary cultures of human nasal epithelial cells, symmetrical HCO3^—buffered solutions were used and ENaC was inhibited by pre-treatment with amiloride (100 μM). All cells were bathed for a 20 min stabilization period and aerated with 95% O2 / 5% CO2 at 37°C. Apical membrane current and short-circuit current were measured with an EVC4000 Multi-Channel V/I Clamp (World Precision Instruments, Sarasota, FL) and recorded using PowerLab 4/35 (AD Instruments, Castle Hill, Australia). Data were collected and analyzed with ADInstruments acquisition software Labchart Pro 7 software. The sampling rate was 4 Hz.

WT-CFTR [3] = target: T1, WT-CFTR; experiment: Whole-cell patch-clamp in FRT cells expressing WT-CFTR
Description: (§2) Whole-cell patch-clamp recordings were performed on WT- or ΔF508-CFTR-expressing FRT cells. The bath solution contained (in mM): 140 NMDG-Cl, 1 CaCl2, 1 MgCl2, 10 glucose and 10 HEPES (pH 7.4). The pipette solution contained (in mM): 130 CsCl, 0.5 EGTA, 1 MgCl2, 1 Tris-ATP, and 10 HEPES (pH 7.2). Pipettes were pulled from borosilicate glass and had resistances of 3–5 MΩ after fire polishing. Seal resistances were between 3 and 10 GΩ. After establishing the whole-cell configuration, CFTR was activated by forskolin and/or CP7q. Whole-cell currents were elicited by applying hyperpolarizing and depolarizing voltage pulses from a holding potential of 0 mV to potentials between -80 mV and +80 mV in steps of 20 mV. Recordings were made at room temperature using an Axopatch-200B (Axon Instruments). Currents were digitized and analyzed using a Digidata 1440A converter (Axon Instruments), and pCLAMP 10.2 software (Molecular Devices, Sunnyvale, CA). Currents were low-pass filtered at 1 kHz and sampled at 5 kHz

ΔF508-CFTR [4] = target: T2, ΔF508-CFTR (Homo sapiens, UniProt P13569, DEL508-508); experiment: Immunoblot of ΔF508-CFTR band C/B in A549-ΔF508-CFTR cells; parameters: expressed in transfected cells; conditions: 48 h, combined with 5 μM VX-809, 10 μM CP7q, vs VX-809 alone
Description: A549 cells stably expressing ΔF508-CFTR were lysed with cell lysis buffer (50 mM Tris-HCl, pH 7.4, 1% Nonidet P-40, 0.25% sodium deoxycholate, 150 mM NaCl, 1 mM EDTA, 1 mM Na3VO4, and protease inhibitor mixture). Whole cell lysates were centrifuged at 15,000 g for 10 min at 4°C to remove the cell debris, and equal amounts (80 μg protein/lane) of supernatant protein were separated by 4–12% Tris-glycine precast gel (KOMA BIOTECH, Seoul, Korea) and then transferred onto PVDF membrane (Millipore, Billerica, MA). Membrane was blocked with 5% non-fat skim milk in PBS including 0.05% Tween 20 for 1 hour at room temperature. This membrane was then incubated overnight with primary CFTR antibody (M3A7, Millipore, Billerica, MA). After washing with 0.05% Tween 20 in PBS (PBST), the blot was further incubated for 45 min at room temperature with an anti-mouse secondary antibody (Cell Signaling). The membrane was then washed three times with PBST for 5 minutes and then visualized using the ECL Plus western blotting detection system (GE Healthcare Amersham; Piscataway, NJ). The immunoblot results were analyzed quantitatively by ImageJ Software.

ΔF508-CFTR [5] = target: T2, ΔF508-CFTR; experiment: Whole-cell patch-clamp in FRT cells expressing ΔF508-CFTR; parameters: expressed in transfected cells; host or cells: Fisher rat thyroid (FRT) cells, co-expressing halide sensor YFP-H148Q/I152L; provided by Dr. Alan Verkman
Description: as §2

ΔF508-CFTR [6] = target: T2, ΔF508-CFTR; experiment: Apical membrane current of VX-809-rescued ΔF508-CFTR in FRT cells; parameters: expressed in transfected cells; host or cells: Fisher rat thyroid (FRT) cells, co-expressing halide sensor YFP-H148Q/I152L; provided by Dr. Alan Verkman; conditions: 48 h, combined with 5 μM VX-809, 10 μM CP7q or 5 μM VX-770
Description: as §1

[7] = whole cell patch-clamp, no forskolin

T2 sequence (P13569 with tags, fused parts or gaps DEL508-508): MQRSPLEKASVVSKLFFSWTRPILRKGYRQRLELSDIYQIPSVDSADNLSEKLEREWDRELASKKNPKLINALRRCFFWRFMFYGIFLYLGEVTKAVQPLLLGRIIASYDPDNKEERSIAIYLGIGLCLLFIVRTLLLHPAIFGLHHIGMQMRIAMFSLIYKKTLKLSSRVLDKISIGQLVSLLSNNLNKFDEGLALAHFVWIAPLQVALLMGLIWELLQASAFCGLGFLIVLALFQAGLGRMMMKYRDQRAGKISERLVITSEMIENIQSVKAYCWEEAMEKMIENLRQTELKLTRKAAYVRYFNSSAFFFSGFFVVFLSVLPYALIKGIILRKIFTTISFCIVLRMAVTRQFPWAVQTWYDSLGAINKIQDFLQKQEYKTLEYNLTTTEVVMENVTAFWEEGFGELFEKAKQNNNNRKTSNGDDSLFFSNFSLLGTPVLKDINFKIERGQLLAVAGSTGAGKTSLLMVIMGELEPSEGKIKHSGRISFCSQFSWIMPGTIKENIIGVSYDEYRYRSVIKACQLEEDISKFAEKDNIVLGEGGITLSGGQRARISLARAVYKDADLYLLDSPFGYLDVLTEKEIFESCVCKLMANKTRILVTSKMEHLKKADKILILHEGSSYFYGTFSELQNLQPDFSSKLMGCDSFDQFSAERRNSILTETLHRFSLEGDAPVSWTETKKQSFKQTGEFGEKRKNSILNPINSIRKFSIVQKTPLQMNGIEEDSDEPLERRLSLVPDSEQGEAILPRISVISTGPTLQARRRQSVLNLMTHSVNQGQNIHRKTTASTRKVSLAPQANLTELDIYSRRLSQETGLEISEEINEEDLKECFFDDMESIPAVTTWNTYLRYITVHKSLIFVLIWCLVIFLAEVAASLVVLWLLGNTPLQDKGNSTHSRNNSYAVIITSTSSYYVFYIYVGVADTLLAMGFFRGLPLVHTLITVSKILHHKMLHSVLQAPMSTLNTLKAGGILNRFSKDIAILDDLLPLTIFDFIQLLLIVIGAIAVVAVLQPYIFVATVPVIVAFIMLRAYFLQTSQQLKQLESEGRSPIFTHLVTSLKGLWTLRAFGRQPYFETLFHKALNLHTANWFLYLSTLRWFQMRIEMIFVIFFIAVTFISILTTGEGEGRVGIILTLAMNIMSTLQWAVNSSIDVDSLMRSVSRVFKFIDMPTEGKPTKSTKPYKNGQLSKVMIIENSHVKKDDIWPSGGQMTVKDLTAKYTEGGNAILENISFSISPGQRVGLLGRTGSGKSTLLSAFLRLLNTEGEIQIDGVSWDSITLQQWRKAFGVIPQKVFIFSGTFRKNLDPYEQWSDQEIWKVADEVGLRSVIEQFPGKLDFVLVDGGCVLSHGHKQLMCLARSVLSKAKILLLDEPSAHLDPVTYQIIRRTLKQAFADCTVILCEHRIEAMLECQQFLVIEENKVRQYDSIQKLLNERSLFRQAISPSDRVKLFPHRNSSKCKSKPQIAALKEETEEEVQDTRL

Q: Which results are given for `COc1ccc(C2CC(c3ccc(O)cc3O)=NN2c2ccc(S(N)(=O)=O)cc2)c(OC)c1` (stereo not drawn) [Compound 7q, 4-[3-(2,4-dihydroxyphenyl)-5-(2,4-dimethoxyphenyl)-4,5-dihydro-1H-pyrazol-1-yl] benzenesulfonamide]?
A: EC50 (WT-CFTR [1]): 0.9 µM; EC50 (WT-CFTR [2]; FRT-WT-CFTR cells, 0.1 μM forskolin): 880 nM and ~880 nM; Maximum efficacy of CFTR potentiation compared with genistein (WT-CFTR [2]; WT-CFTR stimulated by 0.1 μM forskolin): significantly higher than that of genistein; Potentiation of whole-cell WT-CFTR Cl- current (WT-CFTR [3]; 0.1 μM forskolin, 10 μM CP7q): strongly potentiated; Activation of WT-CFTR without forskolin stimulation (WT-CFTR [3]; [7]): did not activate; Effect on ratio of band C to band B of ΔF508-CFTR (ΔF508-CFTR [4]): strongly increased; Potentiation of whole-cell ΔF508-CFTR Cl- current (ΔF508-CFTR [5]; 10 μM forskolin, 10 μM CP7q, 27°C rescue): significantly potentiated; Activation of ΔF508-CFTR without forskolin stimulation (ΔF508-CFTR [5]; [7]): did not activate; Effect on apical membrane current of VX-809-rescued ΔF508-CFTR (ΔF508-CFTR [6]): strongly increased
